From US20240300943A1, “NOVEL SALTS OF HETEROCYCLIC COMPOUND AS PROTEIN KINASE INHIBITOR AND USES THEREOF” (HK INNO.N CORPORATION, priority 2021, published 2024)
Values belong to the compound of their own block, whether it stands above or below them.

Tests used:
Type in all cases: physicochemical
[1] = Measurement of water solubility; conditions: saturated solution shaken at room temperature for 24 hours
Procedure: A liquid phase was taken out of the solution and filtered using a 0.22 μm PVDF filter. The filtered liquid phase was diluted 10-fold for LC analysis.
LC analysis was performed by the following method.

[2] = Photostability evaluation
Excerpt: Samples were packaged in LPDE bag, and stored under visible (1.2M Lux-h), UV (200 W-h/m2) and UV+visible conditions, respectively, and then evaluated.

[3] = Hygroscopicity evaluation; conditions: for Individual related material: in %
Excerpt: Samples were placed in a glass desiccator in which relative humidity was adjusted to 33%, 53%, 75%, and 93%, and then stored for two and four weeks to be evaluated.

[4] = Physical stability evaluation under stress conditions
Procedure: In order to evaluate physical stability, samples were packaged in the form of ((LPDE+N2)+silica gel 1 g+LDPE)+Al-Bag, and stored under stress conditions (60° C.±2° C./80% RH±5%) for 2/4 weeks before evaluation.
In table 2, initial is a result measured after preparation of salts, and S2W and S4W are results measured after two and four weeks while being exposed to stress conditions, respectively.

- Water solubility [1]: 0.9 mg/mL
Structure (SMILES): C[C@@H]1CN(C(=O)CC#N)CC=C1c1cc(NC(=O)C2CC2)nc2[nH]ccc12 [Example 6, (S)—N-(4-(1-(2-cyanoacetyl)-3-methyl-1,2,3,6-tetrahydropyridin-4-yl)-1H-pyrrolo[2,3-b]pyridin-6-yl)cyclopropanecarboxamide]

- Water solubility [1]: 5.9 mg/mL
- Individual related material ([2]; Initial): 0.13%
- Total related material ([2]; Initial): 0.66%
- Individual related material ([2]; Solid, Control): 0.11%
- Total related material ([2]; Solid, Control): 0.55%
- Individual related material ([2]; Solid, UV (200 W-h/m2)): 0.36%
- Total related material ([2]; Solid, UV (200 W-h/m2)): 2.31%
- Individual related material ([2]; Solid, UV + Vis): 0.81%
- Total related material ([2]; Solid, UV + Vis): 4.74%
- Individual related material ([2]; Solid, UV + Vis Control): 0.12%
- Total related material ([2]; Solid, UV + Vis Control): 0.65%
- Individual related material ([2]; Solid, Vis (1.2M Lux-h)): 0.66%
- Total related material ([2]; Solid, Vis (1.2M Lux-h)): 3.83%
- Total related material ([3]; Initial): 0.66%
- Water ([3]; Initial): 3.33%
- Individual related material ([3]; Initial): 0.13
- Total related material ([3]; relative humidity 33%, 2 W): 0.68%
- Water ([3]; relative humidity 33%, 2 W): 5.22%
- Individual related material ([3]; relative humidity 33%, 2 W): 0.12
- Total related material ([3]; relative humidity 33%, 4 W): 0.62%
- Water ([3]; relative humidity 33%, 4 W): 5.32%
- Individual related material ([3]; relative humidity 33%, 4 W): 0.11
- Total related material ([3]; relative humidity 53%, 2 W): 0.78%
- Water ([3]; relative humidity 53%, 2 W): 5.21%
- Individual related material ([3]; relative humidity 53%, 2 W): 0.12
- Total related material ([3]; relative humidity 53%, 4 W): 0.78%
- Water ([3]; relative humidity 53%, 4 W): 5.38%
- Individual related material ([3]; relative humidity 53%, 4 W): 0.12
- Total related material ([3]; relative humidity 75%, 2 W): 0.69%
- Water ([3]; relative humidity 75%, 2 W): 5.24%
- Individual related material ([3]; relative humidity 75%, 2 W): 0.12
- Total related material ([3]; relative humidity 75%, 4 W): 0.68%
- Water ([3]; relative humidity 75%, 4 W): 5.41%
- Individual related material ([3]; relative humidity 75%, 4 W): 0.11
- Total related material ([3]; relative humidity 93%, 2 W): 0.89%
- Water ([3]; relative humidity 93%, 2 W): 5.37%
- Individual related material ([3]; relative humidity 93%, 2 W): 0.12
- Total related material ([3]; relative humidity 93%, 4 W): 0.94%
- Water ([3]; relative humidity 93%, 4 W): 5.43%
- Individual related material ([3]; relative humidity 93%, 4 W): 0.13
- C.I quantitative ([4]; Initial): 9.2%
- Content (anhydride, as anhydride) ([4]; Initial): 97.9%
- Moisture ([4]; Initial): 3.33%
- Purity: Individual related material ([4]; Initial): 0.13%
- Purity: Total related material ([4]; Initial): 0.66%
- C.I quantitative ([4]; S2W: 2 weeks at 60° C./80% RH): 9.1%
- Content (anhydride, as anhydride) ([4]; S2W: 2 weeks at 60° C./80% RH): 98.0%
- Purity: Individual related material ([4]; S2W: 2 weeks at 60° C./80% RH): 0.13%
- Purity: Total related material ([4]; S2W: 2 weeks at 60° C./80% RH): 1.08%
- C.I quantitative ([4]; S4W: 4 weeks at 60° C./80% RH): 9.1%
- Content (anhydride, as anhydride) ([4]; S4W: 4 weeks at 60° C./80% RH): 98.6%
- Purity: Individual related material ([4]; S4W: 4 weeks at 60° C./80% RH): 0.34%
- Purity: Total related material ([4]; S4W: 4 weeks at 60° C./80% RH): 1.28%
Structure (SMILES): C[C@@H]1CN(C(=O)CC#N)CC=C1c1cc(NC(=O)C2CC2)nc2[nH]ccc12 [Example 1, (S)—N-(4-(1-(2-cyanoacetyl)-3-methyl-1,2,3,6-tetrahydropyridin-4-yl)-1H-pyrrolo[2,3-b]pyridin-6-yl)cyclopropanecarboxamide]

- Water solubility [1]: 4.6 mg/mL
- Individual related material ([2]; Initial): 0.14%
- Total related material ([2]; Initial): 0.64%
- Individual related material ([2]; Solid, Control): 0.65%
- Total related material ([2]; Solid, Control): 0.65%
- Individual related material ([2]; Solid, UV (200 W-h/m2)): 1%
- Total related material ([2]; Solid, UV (200 W-h/m2)): 1%
- Individual related material ([2]; Solid, UV + Vis): 1.96%
- Total related material ([2]; Solid, UV + Vis): 1.96%
- Individual related material ([2]; Solid, UV + Vis Control): 0.78%
- Total related material ([2]; Solid, UV + Vis Control): 0.78%
- Individual related material ([2]; Solid, Vis (1.2M Lux-h)): 1.72%
- Total related material ([2]; Solid, Vis (1.2M Lux-h)): 1.72%
Structure (SMILES): C[C@@H]1CN(C(=O)CC#N)CC=C1c1cc(NC(=O)C2CC2)nc2[nH]ccc12 [Example 5, (S)—N-(4-(1-(2-cyanoacetyl)-3-methyl-1,2,3,6-tetrahydropyridin-4-yl)-1H-pyrrolo[2,3-b]pyridin-6-yl)cyclopropanecarboxamide]
